Results on two molecules are retold here after patent US9688709B2, “Phosphaplatins and their use for treatment of cancers” (OHIO UNIVERSITY, priority 2010, dated 2017).

Read-outs that look alike come from different tables or passages of the source.

The nature of data set [1]: Stability in aqueous solution at neutral pH (31P-NMR). In kind it is physicochemical. The text has this: Typically, no decomposition is observed within seven days after dissolving the phosphaplatin compounds in water and observing by ^31P-NMR spectroscopy.
The subject of data set [2] is human ovarian cancer A2780 xenograft. In words: In vivo efficacy, A2780 mouse xenograft. On the set-up: species or system mice. The method, then:
Stable clonal ovarian cancer cell lines A2780 were grown in cell culture until 80-90% confluency was reached. Trypsin (GIBCO/BRL, Grand Island, N.Y.) was used to detach adherent cells. Trypsinized cells were thoroughly washed with PBS (Phosphate Buffered Saline) to remove trypsin. Efficacy of phosphaplatin compounds were evaluated using human ovarian cancer, A2780 by subcutaneous xenograft in SCID Hairless OutBred, SHO-Prkdc^scidHr^hr, (Charles River Labs, Wilmington, Mass.) mice. Female SCID mice 4 to 5 weeks old were acclimated for one week before initiation of efficacy trials.
Cancer cells were re-suspended in PBS, and all mice except for negative control mice were injected subcutaneously with from 1×10^6 cells/0.10 mL to 5×10^6 cells/0.10 mL in PBS and were evaluated for tumors as a function of time using sterile 26 gauge needles and syringes. The mice were examined daily for tumor growth. Tumors were measured using digital calipers. The tumor volume was calculated by the formula (W^2×L)/2, where W is the tumor measurement at the widest point, and L is the tumor dimension at the longest point, where the volume of the tumor in mm^3 is equivalent to the weight in mg. […]
The xenograft SCID mice were monitored every day for any adverse events in their health by measuring weight loss/gain and food consumption. […]

For data set [3], the system named is human ovarian cancer OVCAR-10 xenograft. In words: In vivo efficacy, OVCAR-10 mouse xenograft. Further details: species or system mice. As to conditions: 40 mg/kg body weight, during the treatment time. The method, then:
Stable human clonal ovarian cancer cell lines OVCAR-10 and head and neck cancer UMSCC10b were grown separately in cell culture until 80-90% confluency was reached. Trypsin (GIBCO/BRL, Grand Island, N.Y.) was used to detach adherent cells. Trypsinized cells were thoroughly washed with PBS (Phosphate Buffered Saline) to remove trypsin. Efficacy of phosphaplatin compounds were evaluated by subcutaneously implanting human OVCAR-10 and UMSCC-10b xenograft in SCID Hairless OutBred, SHO-Prkdc^scidHr^hr, (Charles River Labs, Wilmington, Mass.) mice, NIH (NIH III: NIHBNX-F; NIHS-Lystbg Foxnlnu Btkxid, 4-week old female, Taconic (Rensselaer, N.Y.) mice.
Female SCID/NIH mice 4-5 weeks old were acclimated for one week before initiation of efficacy trials. Cancer cells were re-suspended in PBS and all mice except for negative control mice were injected subcutaneously with from 1×10^6 cells/0.10 mL to 5×10^6 cells/0.10 mL in PBS. The tumor size was evaluated as a function of time. The mice were examined daily for tumor growth. Tumors were measured using digital calipers. The tumor volume was calculated by the formula (W^2×L)/2, where W is the tumor measurement at the widest point, and L is the tumor dimension at the longest point, where the volume of the tumor in mm^3 is equivalent to the weight in mg.
After approximately 2 weeks of the subcutaneous injection of cancer cells, the tumors that had reached a distinguishable tumor sizes (approximately 100 mm^3 to 200 mm^3), phosphaplatin compounds of desired doses were administered intra-peritoneally. These administrations were done one time on day 1, once on day 3, and once on day 5.
Each group of xenograft mice was treated with phosphaplatin compounds, and a matched set was treated with vehicle/placebo (PBS solution) and mock injection (as a control for stress response). […] The xenograft SCID mice/NIH were monitored every day for any adverse events in their health by measuring weight loss/gain and food consumption. Measurements were stopped and the study was ended when the tumor size exceeded 3000 mm^3. […]

For the molecule `O=P1(O)OP(=O)(O)[O][Pt]2([NH][C@@H]3CCCC[C@H]3[NH]2)[O]1` (stereo partly drawn) [(1R,2R)-pyrodach-2, ((1R,2R)-1,2-cyclohexanediamine)(dihydrogenpyrophosphato)platinum (II)], the “stability at neutral pH in aqueous solution” value in data set [1] (dissolved in water, observed by 31P-NMR, seven days) is “remarkable stability”. The tumor response entry in data set [2] (40 mg/kg qodx3, first ten days of treatment) is “tumor regression”; in data set [3], “tumor regression”.
For the molecule `O=P1(O)OP(=O)(O)[O][Pt]2([OH])([OH])([NH][C@@H]3CCCC[C@H]3[NH]2)[O]1` [(1R,2R)-pyrodach-4, ((1R,2R)-1,2-cyclohexanediamine)-trans-dihydroxo(dihydrogenpyrophosphato)platinum (IV)], the “stability at neutral pH in aqueous solution” value in data set [1] is listed as “remarkable stability”. Further, the tumor response entry is on record as “tumor regression” in data set [2] (10 mg/kg qodx3, first ten days of treatment) and “tumor regression” in data set [3].
